Measurements as given in patent US10206907B2, “Compounds useful for the treatment of degenerative and inflammatory diseases” (GALAPAGOS NV, priority 2008, dated 2019).

Columns and labels:
[1] = test system: JAK-STAT signalling in HeLa cells; assay: JAK-STAT signalling assay (OSM-triggered pSTAT1(2)-luciferase reporter in HeLa cells); type: cell-based; settings: Homo sapiens; HeLa cells, OSM-triggered pSTAT1(2)-luciferase reporter; read-out: STAT signalling EC50
Experimental: HeLa cells were maintained in Dulbecco's Modified Eagle's Medium (DMEM) containing 10% heat inactivated fetal calf serum, 100 U/mL penicillin and 100 μg/mL streptomycin. HeLa cells were used at 70% confluence for transfection. 20,000 cells in 87 μL cell culture medium were transiently transfected with 40 ng pSTAT1(2)-luciferase reporter (Panomics), 8 ng of LacZ reporter as internal control reporter and 52 ng of pBSK using 0.32 μL Jet-PEI (Polyplus) as transfection reagent per well in 96-well plate format. After overnight incubation at 37° C., 10% CO2, transfection medium was removed.
40 μL of cell lysate was used to read β-galactosidase activity by adding 180 μL βGal solution (30 μl ONPG 4 mg/mL+150 μL β-Galactosidase buffer (0.06 M Na2HPO4, 0.04 M NaH2PO4, 1 mM MgCl2)) for 20 min.
Luciferase activity was measured using 40 μL cell lysate plus 40 μl of Steadylite® as described by the manufacturer (Perkin Elmer), on the Envision (Perkin Elmer).
The positive and negative controls were used to calculate z’ and ‘percent inhibition’ (PIN) values.
PIN values were plotted for compounds tested in dose-response and EC50 values were derived.

[2] = test system: MMP13 in SW1353 cells; assay: OSM/IL-1β signaling assay (MMP13 levels in SW1353 cells); type: cell-based; settings: Homo sapiens; SW1353 cells, OSM and IL-1β triggered, MMP13 levels 48 hours after triggering; read-out: MMP13 EC50;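 also: secreted MMP13 captured by antibody, activated with APMA and its activity read by fluorescence, inhibition scaled between vehicle-treated triggered wells (0%) and untriggered wells (100%)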
Experimental: The cells were seeded in 96 well plates at 15,000 cells/well in a volume of 120 μL DMEM (Invitrogen) containing 10% (v/v) FBS and 1% penicillin/streptomycin (InVitrogen) incubated at 37° C. […] MMP13 activity was measured using an antibody capture activity assay. […] Next the wells were washed twice with PBS+0.05% Tween followed by MMP13 activation by addition of 35 μL of a 1.5 mM 4-Aminophenylmercuric acetate (APMA) (Sigma, A9563) solution and incubation at 37° C. for 1 hour. […] Percentage inhibition=((fluorescence determined in the presence of vehicle−fluorescence determined for sample with test compound present) divided by (fluorescence determined in the presence of vehicle−fluorescence determined for sample without trigger))*100%.

[3] = molecular target: Recombinant human JAK1 catalytic domain (Homo sapiens (Human), UniProt P23458); assay: JAK1 inhibition assay; type: biochemical; settings: semi-quantitative score
Recombinant human JAK1 catalytic domain, sequence (P23458 850-1154): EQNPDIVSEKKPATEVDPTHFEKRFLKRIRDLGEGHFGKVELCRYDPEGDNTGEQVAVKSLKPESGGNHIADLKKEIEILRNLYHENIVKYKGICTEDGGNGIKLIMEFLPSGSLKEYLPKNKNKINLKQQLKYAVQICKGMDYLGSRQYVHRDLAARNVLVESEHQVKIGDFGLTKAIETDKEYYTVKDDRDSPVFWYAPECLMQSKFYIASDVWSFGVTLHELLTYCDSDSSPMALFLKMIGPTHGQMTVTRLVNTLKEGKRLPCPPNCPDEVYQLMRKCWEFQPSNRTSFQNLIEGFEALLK
Method in brief: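 Radiometric assay read by scintillation counting after phosphoric-acid washes. Percent inhibition calculated from cpm relative to vehicle and 10 μM staurosporine control. IC50 derived from compound dose-dilution series.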

[4] = molecular target: Recombinant human JAK2 catalytic domain (Homo sapiens (Human), UniProt O60674); assay: JAK2 inhibition assay; type: biochemical; settings: semi-quantitative score
Recombinant human JAK2 catalytic domain, sequence (O60674 808-1132): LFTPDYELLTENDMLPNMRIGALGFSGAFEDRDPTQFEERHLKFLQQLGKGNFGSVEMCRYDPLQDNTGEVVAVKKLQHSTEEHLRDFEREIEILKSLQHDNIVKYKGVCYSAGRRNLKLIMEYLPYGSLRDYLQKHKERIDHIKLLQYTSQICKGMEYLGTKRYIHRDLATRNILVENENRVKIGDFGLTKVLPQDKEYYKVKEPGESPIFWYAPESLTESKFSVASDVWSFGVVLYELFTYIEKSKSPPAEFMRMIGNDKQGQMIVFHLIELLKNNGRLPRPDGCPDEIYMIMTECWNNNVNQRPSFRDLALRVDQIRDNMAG
Method in brief: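 Radiometric kinase reactions ran for 90 min at 30 °C and were stopped with phosphoric acid, then washed and counted by scintillation. Percent inhibition was set relative to vehicle and to 10 μM staurosporine background. IC50 was derived from dose-dilution series.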

| SMILES | EC50 [1] [nM] | EC50 [2] [nM] | IC50 [3] [nM] | IC50 [4] [nM] |
| --- | --- | --- | --- | --- |
| O=C(Nc1nc2cccc(-c3ccc(CNc4cccnc4)cc3)n2n1)C1CC1 [Compound 223, Cyclopropanecarboxylic acid {5-[4-(pyridin-3-ylaminomethyl)-phenyl]-[1,2,4]triazolo[1,5-a]pyridin-2-yl}-amide] | > 1000 | > 1000 | < 100 | 501 to 1000 |
| O=C(Nc1nc2cccc(-c3ccc(NS(=O)(=O)c4ccccc4)cc3)n2n1)C1CC1 [Compound 79, N-(5-(4-(phenylsulfonamido)phenyl)-[1,2,4]triazolo[1,5-a]pyridin-2-yl)cyclopropanecarboxamide] | > 1000 | 501 to 1000 | < 100 | – |
| CC(=O)NC1CN(C(=O)c2ccc(-c3cccc4nc(NC(=O)C5CC5)nn34)cc2)C1 [Compound 287, Cyclopropanecarboxylic acid {5-[4-(3-acetylamino-azetidine-1-carbonyl)-phenyl]-[1,2,4]triazolo[1,5-a]pyridin-2-yl}-amide] | > 1000 | > 1000 | < 100 | – |
| O=C(Nc1nc2cccc(-c3ccc(OCc4ccc(-c5nnn[nH]5)nc4)cc3)n2n1)C1CC1 [Compound 183, Cyclopropanecarboxylic Acid (5-{4-[6-(2H-tetrazol-5-yl)-pyridin-3-ylmethoxy]-phenyl}-[1,2,4]triazolo[1,5-a]pyridin-2-yl)-amide] | > 1000 | > 1000 | < 100 | – |
| CC(C)(C)OC(=O)NC1CCN(Cc2ccc(-c3cccc4nc(NC(=O)C5CC5)nn34)cc2)CC1 [Compound 310] | > 1000 | – | < 100 | > 1000 |
| N#Cc1ccc(COC2CN(c3ccc(-c4cccc5nc(NC(=O)C6CC6)nn45)cc3)C2)cc1 [Compound 284, Cyclopropanecarboxylic acid (5-{4-[3-(4-cyano-benzyloxy)-azetidin-1-yl]-phenyl}-[1,2,4]triazolo[1,5-a]pyridin-2-yl)-amide] | > 1000 | – | < 100 | 501 to 1000 |
| CN1CCN(c2ccc(NCc3ccc(-c4cccc5nc(NC(=O)C6CC6)nn45)cc3)cn2)CC1 [Compound 235, Cyclopropanecarboxylic acid [5-(4-{[6-(4-methyl-piperazin-1-yl)-pyridin-3-ylamino]-methyl}-phenyl)-[1,2,4]triazolo[1,5-a]pyridin-2-yl]-amide] | > 1000 | – | < 100 | 101 to 500 |
| N#Cc1ccc(-c2ccc(-c3cccc4nc(NC(=O)C5CC5)nn34)cc2)cn1 [Compound 239, Cyclopropanecarboxylic Acid {5-[4-(6-cyano-pyridin-3-yl)-phenyl]-[1,2,4]triazolo[1,5-a]pyridin-2-yl}-amide] | > 1000 | – | < 100 | 101 to 500 |
| CC1CCN(C(=O)c2ccc(-c3cccc4nc(NC(=O)C5CC5)nn34)cc2)CC1 [Compound 146, N-(5-(4-(4-methylpiperidine-1-carbonyl)phenyl)-[1,2,4]triazolo[1,5-a]pyridin-2-yl)cyclopropanecarboxamide] | > 1000 | > 1000 | < 100 | – |
| O=C(Nc1nc2cccc(-c3ccc(-c4cccs4)cc3)n2n1)C1CC1 [Compound 20, N-(5-(4-(thiophen-2-yl)phenyl)-[1,2,4]triazolo[1,5-a]pyridin-2-yl)cyclopropanecarboxamide] | 501 to 1000 | – | 101 to 500 | 501 to 1000 |
| COC1CCN(Cc2ccc(-c3cccc4nc(NC(=O)C5CC5)nn34)cc2)CC1 [Compound 281, Cyclopropanecarboxylic acid {5-[4-(4-methoxy-piperidin-1-ylmethyl)-phenyl]-[1,2,4]triazolo[1,5-a]pyridin-2-yl}-amide] | > 1000 | – | < 100 | > 1000 |
| O=C(Nc1nc2cccc(-c3ccc(CN4CCCC(O)C4)cc3)n2n1)C1CC1 (stereo not shown) [Compound 313, Cyclopropanecarboxylic acid {5-[4-(3-hydroxy-piperidin-1-ylmethyl)-phenyl]-[1,2,4]triazolo[1,5-a]pyridin-2-yl}-amide] | > 1000 | – | < 100 | 101 to 500 |
| N#Cc1ccc(OC2CN(Cc3ccc(-c4cccc5nc(NC(=O)C6CC6)nn45)cc3)C2)cc1 [Compound 278, Cyclopropanecarboxylic acid (5-{4-[3-(4-cyano-phenoxy)-azetidin-1-ylmethyl]-phenyl}-[1,2,4]triazolo[1,5-a]pyridin-2-yl)-amide] | > 1000 | – | < 100 | 101 to 500 |
| O=C(Nc1nc2cccc(-c3ccc(C(=O)N4CCOCC4)cc3)n2n1)C1CC1 [Compound 24, N-(5-(4-(morpholine-4-carbonyl)phenyl)-[1,2,4]triazolo[1,5-a]pyridin-2-yl)cyclopropanecarboxamide] | – | > 1000 | 101 to 500 | 101 to 500 |
| COC1CCN(C(=O)c2ccc(-c3cccc4nc(NC(=O)C5CC5)nn34)cc2)CC1 [Compound 293, Cyclopropanecarboxylic acid {5-[4-(4-methoxy-piperidine-1-carbonyl)-phenyl]-[1,2,4]triazolo[1,5-a]pyridin-2-yl}-amide] | > 1000 | – | < 100 | > 1000 |
| CN(C)C1CCCN(C(=O)c2ccc(-c3cccc4nc(NC(=O)C5CC5)nn34)cc2)C1 (stereo not shown) [Compound 269, Cyclopropanecarboxylic acid {5-[4-(3-dimethylamino-piperidine-1-carbonyl)-phenyl]-[1,2,4]triazolo[1,5-a]pyridin-2-yl}-amide] | > 1000 | – | 101 to 500 | > 1000 |
| N#CC1CN(c2ccc(-c3cccc4nc(NC(=O)C5CC5)nn34)cc2)C1 [Compound 288, Cyclopropanecarboxylic acid {5-[4-(3-cyano-azetidin-1-yl)-phenyl]-[1,2,4]triazolo[1,5-a]pyridin-2-yl}-amide] | > 1000 | – | < 100 | 101 to 500 |
| O=C(Nc1nc2cccc(-c3cccc(OCc4ccccc4)c3)n2n1)C1CC1 [Compound 14, N-(5-(3-(benzyloxy)phenyl)-[1,2,4]triazolo[1,5-a]pyridin-2-yl)cyclopropanecarboxamide] | > 1000 | – | 101 to 500 | 501 to 1000 |
| CN1CCC(NC(=O)c2ccc(-c3cccc4nc(NC(=O)C5CC5)nn34)cc2)CC1 [Compound 32, 4-(2-(cyclopropanecarboxamido)-[1,2,4]triazolo[1,5-a]pyridin-5-yl)-N-(1-methylpiperidin-4-yl)benzamide] | – | > 1000 | 501 to 1000 | > 1000 |
| O=C(NCc1ccc(-c2cccc3nc(NC(=O)C4CC4)nn23)cc1)C1CC1 [Compound 272, Cyclopropanecarboxylic acid 4-[2-(cyclopropanecarbonyl-amino)-[1,2,4]triazolo[1,5-a]pyridin-5-yl]-benzylamide] | > 1000 | – | < 100 | 101 to 500 |
| CN(C)CC1CN(C(=O)c2ccc(-c3cccc4nc(NC(=O)C5CC5)nn34)cc2)C1 [Compound 329, Cyclopropanecarboxylic acid {5-[4-(3-dimethylaminomethyl-azetidine-1-carbonyl)-phenyl]-[1,2,4]triazolo[1,5-a]pyridin-2-yl}-amide] | > 1000 | – | 101 to 500 | > 1000 |
